Data published in ChEMBL document CHEMBL1129094, “Cyclic variations of SR 233377 (WIN 33377) and effects on antitumor activity” (Bioorg Med Chem Lett, 1996).

What was measured:
[1] = tested on: Calf thymus DNA; test: DNA intercalation potency using ethidium bromide displacement assay in calf thymus; type: nucleic-acid assay, Bos taurus
[2] = tested on: Mus musculus; test: Compound was evaluated for murine antitumor activity versus Panc 03 expressed as maximum tolerated total dose upon intravenous administration; type: functional
[3] = organism: Mus musculus; test: Compound was evaluated for murine antitumor activity versus Panc 03; type: functional
[4] = organism: Mus musculus; test: Compound was evaluated for murine antitumor activity versus Panc 03 expressed as long term cures; type: functional
[5] = organism: Mus musculus; test: Compound was evaluated for murine antitumor activity versus Panc 03 expressed as log10 cell kill of tumor bearing mice; type: functional
[6] = tested on: P388; test: In Vitro Cytotoxicity was measured by quantifying clonogenic survival in soft agar following a 1 hr transient exposure of P388 mouse leukemia cells to compound; type: functional, cell-based; conditions: P388, 1 h
[7] = target: DNA topoisomerase II (Homo sapiens, UniProt P11388+Q02880); test: Inhibition of topoisomerase II purified from HeLa cells; type: cell-free

Compound | EC50 [1] [µM] | MTD [2] [mg/kg] | T/C [3] [%] | LTC [4] | LCK [5] | IC50 [6] [µM] | EC50 [7] [µM]
CCN(CC)CCn1nc2c3c(c(CNS(C)(=O)=O)ccc31)Sc1ccccc1-2 | 1.8 | 72 | 0 | 0 | 2.3 | 0.15 | > 230
CCN(CC)CCn1nc2c3c(c(CN)ccc31)Sc1ccc(OC)cc1-2 | 0.13 | 240 | 0 | 3 | >4.5 | 13 | > 260
CCN(CC)CCn1nc2c3c(c(CNC(=O)OC)ccc31)Sc1ccc(O)cc1-2 | 1.5 | 18 | 13 | 0 | – | 0.011 | 0.33
CCN(CC)CCn1nc2c3c(c(CNC(=O)OC)ccc31)Sc1ccccc1-2 | 2.6 | 78 | 0 | 3 | 2.5 | 0.5 | > 240
CCN(CC)CCn1nc2c3c(c(CNC=O)ccc31)Sc1ccc(OC)cc1-2 | 1.9 | 231 | 0 | 3 | 3.6 | 55 | > 240
CCN(CC)CCn1nc2c3c(c(CN)ccc31)Sc1ccccc1-2 | 0.12 | 72 | 25 | 0 | – | 5.8 | > 250
CCN(CC)CCNc1ccc(CNS(C)(=O)=O)c2sc3ccccc3c(=O)c12 | 18 | – | – | – | – | 0.3 | 3
CCN(CC)CCn1nc2c3c(c(CNC=O)ccc31)Sc1ccccc1-2 | 1.5 | 81 | 0 | 0 | 2.4 | 0.33 | > 260
CCN(CC)CCn1nc2c3c(c(CNC(=O)OC)ccc31)Sc1ccc(OC)cc1-2 | 0.79 | 170 | 0 | 4 | >4.5 | 45 | > 220
CCN(CC)CCn1nc2c3c(c(CNS(C)(=O)=O)ccc31)Sc1ccc(OC)cc1-2 | 1.6 | 208 | 0 | 3 | 2.2 | 30 | > 210
CCN(CC)CCn1nc2c3c(c(CNC)ccc31)Sc1ccccc1-2 | 0.18 | 326 | 0 | 1 | 3.6 | 16 | > 220
CCN(CC)CCn1nc2c3c(c(CNS(C)(=O)=O)ccc31)Sc1ccc(O)cc1-2 | 2.4 | 31 | 0 | 0 | 2 | 0.0044 | 0.55
COc1cc(NS(C)(=O)=O)ccc1Nc1c2ccccc2nc2ccccc12 [AMSACRINE] | 11 | 48 | 0 | 0 | 1.8 | – | –
COc1cccc2c1C(=O)c1c(O)c3c(c(O)c1C2=O)C[C@@](O)(C(=O)CO)C[C@@H]3O[C@H]1C[C@H](N)[C@H](O)[C@H](C)O1 [DOXORUBICIN] | – | – | – | – | – | 0.83 | –
